Laboratory results published in ChEMBL document CHEMBL1143037, “Discovery of +(2-{4-[2-(5,6,7,8-tetrahydro-1,8-naphthyridin-2-yl)ethoxy]phenyl}-cyclopropyl)acetic acid as potent and selective alphavbeta3 inhibitor: design, synthesis, and optimization” (Bioorg Med Chem, 2007).

Columns and labels:
[1] = target: T1, Integrin alpha-V/beta-3 (Homo sapiens, UniProt P05106+P06756); experiment: Inhibition of human integrin alpha-v-beta-3 receptor by solid phase receptor assay; type: protein-complex assay
[2] = (§1) Half life in Sprague-Dawley rat; type: ADME, organism-based; conditions: Sprague-Dawley, in vivo
[3] = (§2) Volume of distribution in Sprague-Dawley rat; type: ADME, organism-based; conditions: Sprague-Dawley, in vivo, read-out: Vdss
[4] = target: T1, Integrin alpha-V/beta-3; experiment: Inhibition of human integrin alpha-v-beta-3 receptor expressed in HEK293 cells; type: cell-based
[5] = (§3) Bioavailability in Sprague-Dawley rat; type: ADME, organism-based; conditions: Sprague-Dawley, in vivo
[6] = (§4) Cmax in Sprague-Dawley rat; type: ADME, organism-based; conditions: Sprague-Dawley, in vivo
[7] = Clearance in Sprague-Dawley rat; type: ADME, organism-based; conditions: in vivo
[8] = target: Integrin alpha-V/beta-6 (Homo sapiens, UniProt P06756+P18564); experiment: Inhibition of integrin alpha-beta-6 receptor expressed in HT29 cells; type: cell-based, HT-29
[9] = AUC in Swiss-Webster mouse at 20 mg/kg, iv; type: ADME, organism-based; set-up: dose 20 mg/kg, route intravenous; conditions: plasma
[10] = Bioavailability in Swiss-Webster mouse at 2 mg/kg; type: ADME, organism-based; conditions: in vivo
[11] = Half life in Swiss-Webster mouse at 2 mg/kg; type: ADME, organism-based; set-up: dose 2 mg/kg; conditions: in vivo
[12] = target: Integrin alpha-V/beta-1 (Homo sapiens, UniProt P05556+P06756); experiment: Inhibition of integrin alphavbeta1 receptor expressed in HEK293 cells; type: cell-based
[13] = AUC in Swiss-Webster mouse at 20 mg/kg, po; type: ADME, organism-based; set-up: dose 20 mg/kg, route oral; conditions: plasma
[14] = target: Integrin alpha-V/beta-5 (Homo sapiens, UniProt P06756+P18084); experiment: Inhibition of integrin alpha-v-beta-5 receptor expressed in HEK293 cells; type: cell-based
[15] = Half life in Swiss-Webster mouse at 20 mg/kg; type: ADME, organism-based; set-up: dose 20 mg/kg; conditions: in vivo
[16] = Bioavailability in Swiss-Webster mouse at 20 mg/kg; type: ADME, organism-based; conditions: in vivo
[17] = organism: Rattus norvegicus; experiment: as §1; type: ADME, organism-based; conditions: in vivo
[18] = organism: Rattus norvegicus; experiment: as §2; type: ADME, organism-based; conditions: in vivo
[19] = organism: Rattus norvegicus; experiment: as §3; type: ADME, organism-based; conditions: in vivo
[20] = organism: Rattus norvegicus; experiment: as §4; type: ADME, organism-based; conditions: in vivo

T1 sequence (P05106 27-788 limits assumed): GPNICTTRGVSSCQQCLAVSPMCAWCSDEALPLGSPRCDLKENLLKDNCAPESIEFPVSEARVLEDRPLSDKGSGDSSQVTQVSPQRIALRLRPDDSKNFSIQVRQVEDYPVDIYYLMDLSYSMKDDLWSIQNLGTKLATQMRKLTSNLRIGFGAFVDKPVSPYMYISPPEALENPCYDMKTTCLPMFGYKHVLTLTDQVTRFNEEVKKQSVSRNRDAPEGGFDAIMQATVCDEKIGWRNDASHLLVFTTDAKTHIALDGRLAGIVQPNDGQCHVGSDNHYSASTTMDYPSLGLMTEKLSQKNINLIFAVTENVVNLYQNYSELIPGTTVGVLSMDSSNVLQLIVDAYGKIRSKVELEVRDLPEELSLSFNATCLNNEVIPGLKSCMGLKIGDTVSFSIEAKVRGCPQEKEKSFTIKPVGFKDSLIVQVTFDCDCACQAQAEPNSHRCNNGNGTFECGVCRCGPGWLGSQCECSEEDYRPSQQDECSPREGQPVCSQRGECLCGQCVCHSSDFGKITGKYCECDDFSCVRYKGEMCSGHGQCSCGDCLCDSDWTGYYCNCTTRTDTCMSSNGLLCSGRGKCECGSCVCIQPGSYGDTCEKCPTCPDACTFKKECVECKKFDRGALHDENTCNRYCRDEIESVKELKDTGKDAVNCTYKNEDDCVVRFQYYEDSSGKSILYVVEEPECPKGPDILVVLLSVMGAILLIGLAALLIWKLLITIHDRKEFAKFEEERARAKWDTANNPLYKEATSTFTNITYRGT
T1 sequence (P06756 31-889 limits assumed): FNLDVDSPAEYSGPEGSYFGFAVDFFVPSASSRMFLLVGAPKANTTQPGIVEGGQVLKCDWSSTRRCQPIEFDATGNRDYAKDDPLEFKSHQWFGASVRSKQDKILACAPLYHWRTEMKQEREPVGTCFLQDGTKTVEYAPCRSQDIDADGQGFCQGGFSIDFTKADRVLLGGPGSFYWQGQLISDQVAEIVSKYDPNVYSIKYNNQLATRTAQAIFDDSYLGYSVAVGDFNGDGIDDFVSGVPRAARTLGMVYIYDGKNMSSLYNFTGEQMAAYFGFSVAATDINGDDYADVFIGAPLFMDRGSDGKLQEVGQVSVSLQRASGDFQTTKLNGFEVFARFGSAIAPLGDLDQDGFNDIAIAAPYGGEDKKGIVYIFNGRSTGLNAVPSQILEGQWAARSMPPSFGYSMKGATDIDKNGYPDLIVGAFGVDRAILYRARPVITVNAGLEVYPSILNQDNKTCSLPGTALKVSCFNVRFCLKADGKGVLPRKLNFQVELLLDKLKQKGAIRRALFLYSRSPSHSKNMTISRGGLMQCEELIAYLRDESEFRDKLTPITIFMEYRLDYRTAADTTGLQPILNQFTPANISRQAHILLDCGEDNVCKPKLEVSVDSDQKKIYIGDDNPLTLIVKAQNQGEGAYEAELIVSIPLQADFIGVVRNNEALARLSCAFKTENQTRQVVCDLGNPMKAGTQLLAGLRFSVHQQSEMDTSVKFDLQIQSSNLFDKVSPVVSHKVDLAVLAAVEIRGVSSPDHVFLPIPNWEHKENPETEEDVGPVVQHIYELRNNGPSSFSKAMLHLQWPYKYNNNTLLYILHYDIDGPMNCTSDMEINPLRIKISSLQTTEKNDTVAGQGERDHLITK
T1 sequence (P06756 891-1048 limits assumed): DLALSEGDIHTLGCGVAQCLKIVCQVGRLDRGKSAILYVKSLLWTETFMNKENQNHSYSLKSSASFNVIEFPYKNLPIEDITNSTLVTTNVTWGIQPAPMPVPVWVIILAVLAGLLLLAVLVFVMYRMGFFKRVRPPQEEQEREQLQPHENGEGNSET
Integrin alpha-V/beta-1, sequence (P05556 21-798 limits assumed): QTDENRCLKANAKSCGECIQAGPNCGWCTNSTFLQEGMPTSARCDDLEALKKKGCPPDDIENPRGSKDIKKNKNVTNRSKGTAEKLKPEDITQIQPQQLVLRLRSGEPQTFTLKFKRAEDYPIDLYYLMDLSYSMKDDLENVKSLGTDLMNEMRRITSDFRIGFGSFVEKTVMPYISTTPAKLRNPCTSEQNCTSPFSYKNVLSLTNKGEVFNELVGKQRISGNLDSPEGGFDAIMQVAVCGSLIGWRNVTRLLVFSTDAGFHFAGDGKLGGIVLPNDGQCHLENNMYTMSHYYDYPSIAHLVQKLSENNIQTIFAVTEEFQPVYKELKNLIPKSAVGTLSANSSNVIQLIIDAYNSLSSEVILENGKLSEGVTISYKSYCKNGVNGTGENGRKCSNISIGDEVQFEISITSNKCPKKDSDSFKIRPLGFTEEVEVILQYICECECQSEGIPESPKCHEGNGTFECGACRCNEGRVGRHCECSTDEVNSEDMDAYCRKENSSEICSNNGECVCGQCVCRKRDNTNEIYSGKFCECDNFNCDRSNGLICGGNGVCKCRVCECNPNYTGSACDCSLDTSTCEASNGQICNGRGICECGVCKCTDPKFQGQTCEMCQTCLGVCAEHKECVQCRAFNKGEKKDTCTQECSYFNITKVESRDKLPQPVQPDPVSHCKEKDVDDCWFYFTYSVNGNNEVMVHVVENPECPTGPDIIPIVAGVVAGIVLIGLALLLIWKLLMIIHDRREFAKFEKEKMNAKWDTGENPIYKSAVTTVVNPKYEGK
Integrin alpha-V/beta-1, sequence (P06756 31-889 limits assumed): as the sequence (P06756 31-889 limits assumed) above
Integrin alpha-V/beta-1, sequence (P06756 891-1048 limits assumed): as the sequence (P06756 891-1048 limits assumed) above
Integrin alpha-V/beta-6, sequence (P06756 31-889 limits assumed): as the sequence (P06756 31-889 limits assumed) above
Integrin alpha-V/beta-6, sequence (P06756 891-1048 limits assumed): as the sequence (P06756 891-1048 limits assumed) above
Integrin alpha-V/beta-6, sequence (P18564 22-788 limits assumed): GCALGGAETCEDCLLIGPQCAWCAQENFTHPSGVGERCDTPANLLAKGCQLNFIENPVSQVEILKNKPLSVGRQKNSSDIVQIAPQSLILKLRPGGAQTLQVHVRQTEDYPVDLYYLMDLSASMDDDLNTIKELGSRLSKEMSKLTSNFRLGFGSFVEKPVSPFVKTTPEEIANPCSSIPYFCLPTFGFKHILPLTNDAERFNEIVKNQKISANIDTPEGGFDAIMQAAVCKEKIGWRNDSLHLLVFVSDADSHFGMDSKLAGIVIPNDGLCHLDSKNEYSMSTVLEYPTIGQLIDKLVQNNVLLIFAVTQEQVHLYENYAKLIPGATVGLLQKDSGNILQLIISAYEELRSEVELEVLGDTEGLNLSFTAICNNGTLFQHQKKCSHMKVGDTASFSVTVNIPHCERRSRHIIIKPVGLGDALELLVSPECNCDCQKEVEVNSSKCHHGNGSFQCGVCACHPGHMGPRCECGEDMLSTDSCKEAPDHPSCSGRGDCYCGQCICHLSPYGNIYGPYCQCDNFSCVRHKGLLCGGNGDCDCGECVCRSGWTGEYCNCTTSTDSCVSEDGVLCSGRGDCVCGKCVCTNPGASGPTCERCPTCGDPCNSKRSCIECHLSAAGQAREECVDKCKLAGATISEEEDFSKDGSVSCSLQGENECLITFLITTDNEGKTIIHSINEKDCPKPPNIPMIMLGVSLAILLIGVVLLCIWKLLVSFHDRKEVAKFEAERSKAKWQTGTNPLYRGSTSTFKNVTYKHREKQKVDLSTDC
Integrin alpha-V/beta-5, sequence (P06756 31-889 limits assumed): as the sequence (P06756 31-889 limits assumed) above
Integrin alpha-V/beta-5, sequence (P06756 891-1048 limits assumed): as the sequence (P06756 891-1048 limits assumed) above
Integrin alpha-V/beta-5, sequence (P18084 24-799 limits assumed): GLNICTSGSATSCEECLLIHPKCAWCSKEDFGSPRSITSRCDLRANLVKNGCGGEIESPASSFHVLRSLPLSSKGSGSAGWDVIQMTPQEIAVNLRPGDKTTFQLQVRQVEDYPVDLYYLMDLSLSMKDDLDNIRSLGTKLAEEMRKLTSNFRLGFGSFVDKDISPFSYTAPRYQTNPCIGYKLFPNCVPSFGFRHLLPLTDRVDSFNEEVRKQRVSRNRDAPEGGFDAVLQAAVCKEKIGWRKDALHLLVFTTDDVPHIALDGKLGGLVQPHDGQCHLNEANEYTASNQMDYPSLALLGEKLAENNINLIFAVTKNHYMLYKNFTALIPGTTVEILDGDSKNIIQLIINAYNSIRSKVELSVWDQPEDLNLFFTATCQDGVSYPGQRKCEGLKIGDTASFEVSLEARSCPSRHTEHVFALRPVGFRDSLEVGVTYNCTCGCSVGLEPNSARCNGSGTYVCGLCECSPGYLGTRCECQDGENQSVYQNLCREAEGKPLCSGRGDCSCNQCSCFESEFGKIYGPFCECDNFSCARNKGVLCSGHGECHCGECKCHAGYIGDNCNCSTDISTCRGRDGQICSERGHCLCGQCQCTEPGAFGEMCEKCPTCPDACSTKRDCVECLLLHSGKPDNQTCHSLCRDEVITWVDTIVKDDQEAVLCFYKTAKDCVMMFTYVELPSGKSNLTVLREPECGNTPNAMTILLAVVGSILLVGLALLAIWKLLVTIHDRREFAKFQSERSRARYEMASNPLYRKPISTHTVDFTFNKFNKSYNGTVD

| SMILES | IC50 [1] [nM] | IC50 [4] [nM] | IC50 [8] [nM] | IC50 [12] [nM] | IC50 [14] [nM] | further results |
| --- | --- | --- | --- | --- | --- | --- |
| O=C(O)CC1C(c2ccc(OCCc3ccc4c(n3)NCCC4)cc2)C1(Cl)Cl (stereo unspecified) | 1.6 | 1.5 | 4500 | – | – | half-life [2]: 4 h; Vd [3]: 0.493 L/kg; bioavailability [5]: 100%; Cmax [6]: 17400 ng/mL; clearance [7]: 2.2 mL/min/kg |
| O=C(O)CC1(c2ccccc2)CC1c1ccc(OCCc2ccc3c(n2)NCCC3)cc1 (stereo unspecified) | 2700 | – | – | – | – | – |
| CC1(c2ccc(OCCc3ccc4c(n3)NCCC4)cc2)CC1CC(=O)O (stereo unspecified) | 36 | – | – | – | – | – |
| O=C(O)CC1CC1c1ccc(OCCCNc2ccccn2)cc1 (stereo unspecified) | 19 | 42 | – | 234 | – | AUC [9]: 14200 ng·h/mL; bioavailability [10]: 79%; half-life [11]: 2.3 h; AUC [13]: 18300 ng·h/mL |
| O=C(O)CC1CC1c1ccc(OCCc2ccc3c(n2)NCCC3)c(O)c1 (stereo unspecified) | 1 | 0.9 | 9800 | – | 3 | – |
| O=C(O)CC1CC1c1ccc(OCCc2ccc3c(n2)NCCC3)nc1 (stereo unspecified) | 1900 | – | 10000 | – | – | – |
| O=C(O)CC1CC1c1cccc(OCCc2ccc3c(n2)NCCC3)c1 (stereo unspecified) | 776 | 205 | 9600 | – | – | – |
| O=C(O)CC1CC1c1ccc(OCCc2ccc3c(n2)NCCC3)c(F)c1 (stereo unspecified) | 0.5 | 11 | 3530 | 11 | 3 | half-life [2]: 3.7 h; Vd [3]: 0.864 L/kg; bioavailability [5]: 100%; Cmax [6]: 15000 ng/mL; clearance [7]: 5.8 mL/min/kg |
| O=C(O)CCC1CC1c1ccc(OCc2ccc3c(n2)NCCC3)cc1 (stereo unspecified) | 1000 | – | – | – | – | – |
| O=C(O)CCC1CC1c1cccc(OCCc2ccc3c(n2)NCCC3)c1 (stereo unspecified) | 954 | 525 | – | – | – | – |
| CNc1cccc(CCOc2ccc(C3CC3CC(=O)O)cc2)n1 (stereo unspecified) | 7.4 | 7 | 20000 | – | – | – |
| O=C(O)CC(Cc1ccc(OCCCNc2ccccn2)cc1)c1cccnc1 (stereo unspecified) | 0.5 | 2 | 25000 | 28 | – | AUC [9]: 200 ng·h/mL; bioavailability [10]: 100%; half-life [11]: 1.7 h; AUC [13]: 300 ng·h/mL |
| CC(CC(=O)O)Cc1ccc(OCCCNc2ccccn2)cc1 (stereo unspecified) | 21 | 51 | 4360 | 102 | 33 | AUC [9]: 106000 ng·h/mL; half-life [15]: 4.1 h; bioavailability [16]: 92%; AUC [13]: 195000 ng·h/mL |
| O=C(O)CC(Cc1ccc(OCCCNc2ccccn2)cc1)c1ccccc1 (stereo unspecified) | 8 | 29 | 19800 | 96 | 20 | AUC [9]: 2300 ng·h/mL; bioavailability [10]: 100%; half-life [11]: 4.4 h; AUC [13]: 2800 ng·h/mL |
| O=C(O)CCC1CC1c1ccc(OCCc2ccc3c(n2)NCCC3)nc1 (stereo unspecified) | 472 | 156 | – | – | – | – |
| O=C(O)CC1C(c2ccc(OCCc3ccc4c(n3)NCCC4)cc2)C1(Br)Br (stereo unspecified) | 3.3 | 1.7 | 4330 | – | 20 | – |
| O=C(O)CC1CC1c1ccc(OCCc2ccc3c(n2)NCCC3)c(F)c1F (stereo unspecified) | 2 | 10 | 10000 | – | – | – |
| CC1(C)[C@H](c2ccc(OCCc3ccc4c(n3)NCCC4)cc2)[C@@H]1CC(=O)O (relative stereo) | 12 | – | – | – | – | – |
| CC1(C)C(CC(=O)O)C1c1ccc(OCCc2ccc3c(n2)NCCC3)cc1 (single isomer, unassigned; (-)) | 42 | – | 10000 | – | – | – |
| O=C(O)CC1CC1c1ccc(OCCc2ccc3c(n2)NCCC3)cc1 (single isomer, unassigned; (-)) | 16 | 16 | 10000 | 297 | 33 | – |
| O=C(O)CC1CC1c1ccc(OCCc2ccc3c(n2)NCCC3)cc1 (stereo in doubt; 7) | 5 | 3 | – | 64 | 4.4 | AUC [9]: 378000 ng·h/mL; t1/2 [17]: 1.6 h; Vdss [18]: 0.221 L/kg; bioavailability [10]: 62%; half-life [11]: 1.6 h; F [19]: 62%; Cmax [6]: 24500 ng/mL; AUC [13]: 398000 ng·h/mL |
| CC1(C)C(CC(=O)O)C1c1ccc(OCCc2ccc3c(n2)NCCC3)cc1 (stereo in doubt; 83) | 1.3 | 1.5 | 10000 | – | – | t1/2 [17]: 3.5 h; Vdss [18]: 0.419 L/kg; Cmax [20]: 23500 ng/mL |
| O=C(O)CC1CC1c1ccc(OCCc2ccc3c(n2)NCCC3)cc1 (stereo in doubt; (+)7) | 0.6 | 0.6 | 2570 | 6 | 1.4 | t1/2 [17]: 4 h; Vdss [18]: 0.915 L/kg; F [19]: 100%; Cmax [20]: 14800 ng/mL |
| CC1(C)C(CC(=O)O)C1c1ccc(OCCc2ccc3c(n2)NCCC3)cc1 (stereo in doubt; (+)83) | 0.4 | 0.4 | 1790 | – | 4 | half-life [2]: 5.1 h; Vd [3]: 0.276 L/kg; bioavailability [5]: 100%; Cmax [6]: 33000 ng/mL; clearance [7]: 0.9 mL/min/kg |
